Source: patent US20240360107A1, “AN EIF4A INHIBITOR WITH A NOVEL MECHANISM OF ACTION” (ARIZONA BOARD OF REGENTS ON BEHALF OF THE UNIVERSITY OF …, priority 2021, published 2024)
“Also recorded” adds a separate entry of the source.

biological target: eIF4A (Homo sapiens, UniProt P60842); assay: RNA-stimulated malachite green ATPase assay; type: biochemical; set-up: 6xHis with TEV protease site (N, cleaved yes); made in house; host or cells: E. coli BL21-CodonPlus; settings: comparison within the series
Sequence (P60842 whole entry): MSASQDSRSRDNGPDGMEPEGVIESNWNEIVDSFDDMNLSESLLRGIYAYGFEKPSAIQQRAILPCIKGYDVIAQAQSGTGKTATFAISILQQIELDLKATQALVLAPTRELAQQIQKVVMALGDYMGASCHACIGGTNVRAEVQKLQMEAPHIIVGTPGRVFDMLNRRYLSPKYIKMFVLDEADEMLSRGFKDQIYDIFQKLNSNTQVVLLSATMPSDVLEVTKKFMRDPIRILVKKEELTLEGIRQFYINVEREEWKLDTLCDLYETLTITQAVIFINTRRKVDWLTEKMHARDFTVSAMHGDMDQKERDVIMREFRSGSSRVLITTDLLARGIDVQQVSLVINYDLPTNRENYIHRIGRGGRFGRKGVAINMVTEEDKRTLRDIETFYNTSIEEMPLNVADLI
Description: Human eIF4A protein was produced recombinantly and a greater than 100,000-compound screen for inhibitors was completed using a malachite green ATPase assay (FIG. 11A). […] A stable mixture of yeast RNAs was added in an effort to improve this system and create a more biologically relevant eIF4A assay. eIF4A ATPase activity was accelerated without a statistically significant increase in the background signal in the presence of this RNA (FIG. 11B), and the new conditions gave excellent statistical parameters in a 384-well plate format (FIG. 11C).
ATPase assay. Recombinant WT or mutant eIF4A was added to a clear bottom 384 well plate (Greiner) in ATPase buffer (20 mM Tris pH 7.4, 80 mM KCl, 2.5 mM MgCl2, 1 mM DTT, 1% glycerol). Compounds were added and the plate was incubated at 37° C. for 20 min. ATP/RNA solution was added to afford a 20 μL per well reaction volume with 750 nM eIF4A, 250 μM ATP, and 0.25 mg/mL Yeast RNA (Sigma) for the initial screen and dose responses, and varying concentrations of ATP and RNA for the kinetic assays. The plate was incubated for 4 h at 37° C. for the initial screen and dose responses, and at seven time points (1 hour-7 hours) for kinetic assays. 0.04% v/v (final concentration) Tween-20 was added to a Malachite Green solution, and the Malachite Green (40 μL per well) was added. The solution was incubated for 5 minutes at room temperature and Absorbance at 660 nm was read on a SpectraMax iD5 plate reader (Molecular Devices).

Row | Compound | potency in the eIF4A ATPase assay (in words)
1 | CCCCc1ccc(-c2ccc(-c3cc(C(=O)O)c4ccccc4n3)o2)cc1 [Compound 3, 2-(5-(4-butylphenyl)furan-2-yl)quinoline-4-carboxylic acid] | much less potent than compound 1
2 | CCCCc1ccc(-c2ccc(-c3cc(C(=O)O)c4c(Cl)cccc4n3)o2)cc1 [Compound 4, 2-(5-(4-butylphenyl)furan-2-yl)-5-chloroquinoline-4-carboxylic acid] | large drop in potency
3 | CCCCc1ccc(-c2ccc(-c3cc(C(=O)O)c4cc(Cl)ccc4n3)o2)cc1 [Compound 6, 2-(5-(4-butylphenyl)furan-2-yl)-6-chloroquinoline-4-carboxylic acid] | moderate losses of potency compared to the bromine substituent
4 | CCCCc1ccc(-c2ccc(-c3cc(C(=O)O)c4cc(I)ccc4n3)o2)cc1 [Compound 7, 2-(5-(4-butylphenyl)furan-2-yl)-6-iodoquinoline-4-carboxylic acid] | moderate losses of potency compared to the bromine substituent
5 | CCCCc1ccc(-c2ccc(-c3cc(C(=O)O)c4ccc(F)cc4n3)o2)cc1 [Compound 8, 2-(5-(4-butylphenyl)furan-2-yl)-7-fluoroquinoline-4-carboxylic acid] | moderate potency
6 | CCCCc1ccc(-c2ccc(-c3cc(C(=O)O)c4ccc(Br)cc4n3)o2)cc1 [Compound 10, 7-bromo-2-(5-(4-butylphenyl)furan-2-yl)quinoline-4-carboxylic acid] | moderate potency
7 | CCCCc1ccc(-c2ccc(-c3cc(C(=O)O)c4cccc(Cl)c4n3)o2)cc1 [Compound 11, 2-(5-(4-butylphenyl)furan-2-yl)-8-chloroquinoline-4-carboxylic acid] | less potent than bromine (12)
8 | CCCCc1ccc(-c2ccc(-c3cc(C(=O)O)c4cc(OC)ccc4n3)o2)cc1 [Compound 21, 2-(5-(4-butylphenyl)furan-2-yl)-6-methoxyquinoline-4-carboxylic acid] | much more potent than 7-methoxy (22)
9 | CCCCc1ccc(-c2ccc(-c3cc(C(=O)O)c4ccc(OC)cc4n3)o2)cc1 [Compound 22, 2-(5-(4-butylphenyl)furan-2-yl)-7-methoxyquinoline-4-carboxylic acid] | neither were more potent than earlier molecules in the series
10 | CCCCc1ccc(-c2ccc(-c3cc(C(=O)O)c4cc(OC(F)(F)F)ccc4n3)o2)cc1 [Compound 23, 2-(5-(4-butylphenyl)furan-2-yl)-6-(trifluoromethoxy)quinoline-4-carboxylic acid] | much less potent than compound 21
11 | CCCCc1ccc(-c2ccc(-c3cc(C(=O)O)c4ccc(C(F)(F)F)cc4n3)o2)cc1 [Compound 26, 2-(5-(4-butylphenyl)furan-2-yl)-7-(trifluoromethyl)quinoline-4-carboxylic acid] | performed better in the ATPase assay than molecules with electron-donating substitutions
12 | CCCCc1ccc(-c2ccc(-c3cc(C(=O)O)c4cccc(C(F)(F)F)c4n3)o2)cc1 [Compound 27, 2-(5-(4-butylphenyl)furan-2-yl)-8-(trifluoromethyl)quinoline-4-carboxylic acid] | performed better in the ATPase assay than molecules with electron-donating substitutions; also recorded: about two-fold better than compound 26
13 | CCCCc1ccc(-c2ccc(-c3cc(C(=O)O)c4cccc([N+](=O)[O-])c4n3)o2)cc1 [Compound 30, 2-(5-(4-butylphenyl)furan-2-yl)-8-nitroquinoline-4-carboxylic acid] | over three-fold less potent than compound 28
14 | CCCCc1ccc(-c2ccc(-c3cc(C(=O)O)c4cc([N+](=O)[O-])ccc4n3)s2)cc1 [Compound 31, 2-(5-(4-butylphenyl)thiophen-2-yl)-6-nitroquinoline-4-carboxylic acid] | large drop in potency
15 | CCCCc1ccc(-c2ccc(-c3cc(C(=O)O)c4cc([N+](=O)[O-])ccc4n3)[nH]2)cc1 [Compound 32, 2-(5-(4-butylphenyl)-1H-pyrrol-2-yl)-6-nitroquinoline-4-carboxylic acid] | large drop in potency
16 | CCCCc1ccc(-c2cccc(-c3cc(C(=O)O)c4cc([N+](=O)[O-])ccc4n3)c2)cc1 [Compound 33, 2-(4′-butyl-[1,1′-biphenyl]-3-yl)-6-nitroquinoline-4-carboxylic acid] | drop in potency
17 | CCCCc1ccc(-c2cccc(-c3cc(C(=O)O)c4cc([N+](=O)[O-])ccc4n3)n2)cc1 [Compound 34, 2-(6-(4-butylphenyl)pyridin-2-yl)-6-nitroquinoline-4-carboxylic acid] | drop in potency
18 | CCCCc1ccc(-c2cncc(-c3cc(C(=O)O)c4cc([N+](=O)[O-])ccc4n3)c2)cc1 [Compound 35, 2-(5-(4-butylphenyl)pyridin-3-yl)-6-nitroquinoline-4-carboxylic acid] | lost potency altogether
19 | CCCCc1ccc(-c2ccc(-c3cc(C(=O)O)c4cc([N+](=O)[O-])ccc4n3)cc2)cc1 [Compound 36, 2-(4′-butyl-[1,1′-biphenyl]-4-yl)-6-nitroquinoline-4-carboxylic acid] | much less potent than 28
20 | CCCCc1ccc(-c2ccc(-c3cc(C(=O)O)c4cc([N+](=O)[O-])ccc4n3)cn2)cc1 [Compound 37, 2-(6-(4-butylphenyl)pyridin-3-yl)-6-nitroquinoline-4-carboxylic acid] | much less potent than 28
21 | O=C(O)c1cc(-c2ccc(-c3ccccc3)o2)nc2ccc([N+](=O)[O-])cc12 [Compound 38, 6-nitro-2-(5-phenylfuran-2-yl)quinoline-4-carboxylic acid] | drastic loss in potency
22 | CCCCCc1ccc(-c2ccc(-c3cc(C(=O)O)c4cc([N+](=O)[O-])ccc4n3)o2)cc1 [Compound 40, 6-nitro-2-(5-(4-pentylphenyl)furan-2-yl)quinoline-4-carboxylic acid] | no more potent than 28
23 | CC(C)(C)OC(=O)Nc1cccc(-c2ccc(-c3cc(C(=O)O)c4cc([N+](=O)[O-])ccc4n3)o2)c1 [Compound 44, 2-(5-(3-((tert-butoxycarbonyl)amino)phenyl)furan-2-yl)-6-nitroquinoline-4-carboxyli c acid] | low potency

same assay, conditions: relative to compound 1

Row | Compound | fold less potent than compound 1 in the ATPase assay
24 | CCCCc1ccc(-c2ccc(-c3cc(C(=O)OCC)c4cc(Br)ccc4n3)o2)cc1 [Compound 2, ethyl 6-bromo-2-(5-(4-butylphenyl)furan-2-yl)quinoline-4-carboxylate] | about 5 fold

same assay, conditions: relative to compound 28

Row | Compound | fold less potent than 28 in the ATPase assay
25 | CCCc1ccc(-c2ccc(-c3cc(C(=O)O)c4cc([N+](=O)[O-])ccc4n3)o2)cc1 [Compound 39, 6-nitro-2-(5-(4-propylphenyl)furan-2-yl)quinoline-4-carboxylic acid] | about 5 fold
